Residues, ends and D or L forms follow the SMILES beside them.

In ChEMBL document CHEMBL1129632, “Synthesis and contractile activities of cyclic thrombin receptor-derived peptide analogues with a Phe-Leu-Leu-Arg motif: importance of the Phe/Arg relative conformation and the primary amino group for activity” (1996) one finds Relative activity data, which are given here for four molecules.

The species named for this assay is Rattus norvegicus. Nature of the assay: Relative biological activity in gastric contractile assay of rat (Relative activity is EC(peptide)/EC (compound 4) [EC contraction of each agonist to that of compound 4]). Format: functional, Stomach.
On to `CC(C)C[C@H](NC(=O)[C@H](CC(C)C)NC(=O)[C@H](Cc1ccccc1)NC(=O)[C@@H](N)CO)C(=O)N[C@@H](CCCN=C(N)N)C(N)=O`, for which the Relative activity was found to be 1.
The result for `CC(C)C[C@@H]1NC(=O)[C@H](Cc2ccccc2)NC(=O)CNC(=O)[C@H](CCCN=C(N)N)NC(=O)[C@H](CC(C)C)NC1=O` (HELM PEPTIDE1{F.L.L.R.G}$PEPTIDE1,PEPTIDE1,1:R1-5:R2$$$V2.0) reads 390; that for `CC(C)C[C@@H]1NC(=O)[C@H](CC(C)C)NC(=O)[C@H](Cc2ccccc2)NC(=O)[C@@H](N)CCCCNC(=O)[C@H](CCCN=C(N)N)NC1=O` (HELM PEPTIDE1{K.F.L.L.R}$PEPTIDE1,PEPTIDE1,1:R3-5:R2$$$V2.0), 2.4; that for `CC(C)C[C@@H]1NC(=O)[C@H](Cc2ccccc2)NC(=O)CCCCCNC(=O)[C@H](CCCN=C(N)N)NC(=O)[C@H](CC(C)C)NC1=O` (single isomer, unassigned), >1000.
